Test results as given in US6362134B1, “Herbicidal 1,2,4,6-thiatriazines” (Syngenta Investment Corporation, priority 1996, dated 2002).

Columns and labels:
Assay type in all cases: in vivo
[1] = test system: Sinapis; assay: Post-emergent herbicidal action (contact herbicide); set-up: key: 1=complete damage; 9=no action; Ratings of 1 to 4 (in particular 1 to 3) mean a good to very good herbicidal action; conditions: 2000 g of active substance/ha, sprayed in the 4- to 6-leaf stage, evaluated after about 18 days, ratings scale 1-9
Description: (§1) Monocotyledon and dicotyledon test plants are grown in plastic pots with standard soil in a greenhouse and, in the 4- to 6-leaf stage, are sprayed with an aqueous suspension of the test substances of the formula 1, prepared from a 25% wettable power (Example F3, b)), corresponding to a dosage of 2000 g of active substance/ha (500 l of water/ha). The test plants are then grown further in the greenhouse under optimum conditions. After a test period of about 18 days, the test is evaluated with a ratings scale of 9 levels (1=complete damage, 9=no action). Ratings of 1 to 4 (in particular 1 to 3) mean a good to very good herbicidal action.
(§2) Test plants: Sinapis, Stellaria

[2] = test system: Stellaria; assay: as above; set-up: key: 1=complete damage; 9=no action; Ratings of 1 to 4 (in particular 1 to 3) mean a good to very good herbicidal action; conditions: 2000 g of active substance/ha, sprayed in the 4- to 6-leaf stage, evaluated after about 18 days, ratings scale 1-9
Description: as §1, §2

[3] = test system: Avena; assay: Herbicidal action before emergence of the plants (pre-emergent action); conditions: 2000 g of active substance/ha, sprayed immediately after sowing, evaluated after 3 weeks, ratings scale of nine levels (1=complete damage, 9=no action)
Description: (§3) Monocotyledon and dicotyledon test plants are sown in standard soil in plastic pots. Immediately after sowing, the test substances are sprayed on (500 l of water/ha) in an aqueous suspension prepared from a 25% wettable powder (Example F3, b)), corresponding to a dosage of 2000 g of active substance/ha. The test plants are then grown under optimum conditions in a greenhouse. After a test period of 3 weeks, the test is evaluated with a ratings scale of nine levels (1=complete damage, 9=no action). Ratings of 1 to 4 (in particular 1 to 3) mean a good to very good herbicidal action.
(§4) Test plants: Avena, Setaria, Sinapis, Stellaria

[4] = test system: Setaria; assay: as above; set-up: key: 1=complete damage; 9=no action; Ratings of 1 to 4 (in particular 1 to 3) mean a good to very good herbicidal action; conditions: 2000 g of active substance/ha, sprayed immediately after sowing, evaluated after 3 weeks, ratings scale of nine levels
Description: as §3, §4

[5] = test system: Sinapis; assay: as above; set-up: key: 1=complete damage; 9=no action; Ratings of 1 to 4 (in particular 1 to 3) mean a good to very good herbicidal action; conditions: 2000 g of active substance/ha, sprayed immediately after sowing, evaluated after 3 weeks, ratings scale of nine levels
Description: as §3, §4

[6] = test system: Stellaria; assay: as above; set-up: key: 1=complete damage; 9=no action; Ratings of 1 to 4 (in particular 1 to 3) mean a good to very good herbicidal action; conditions: 2000 g of active substance/ha, sprayed immediately after sowing, evaluated after 3 weeks, ratings scale of nine levels
Description: as §3, §4

Row | SMILES | Post-emergent action, rating, Sinapis [1] | Post-emergent action, rating, Stellaria [2] | Pre-emergent action, rating, Avena [3] | Pre-emergent action, rating, Setaria [4] | Pre-emergent action, rating, Sinapis [5] | Pre-emergent action, rating, Stellaria [6]
1 | CCC(C)(C)C1CCC(OS2=NC(N)=NC(Oc3c(F)c(F)c(F)c(F)c3F)=N2)CC1 (stereo not shown) [5.59] | 1 | 3 | – | – | – | –
2 | CN(Cc1ccc(Cl)nc1)S1=NC(N)=NC(Oc2c(F)c(F)c(F)c(F)c2F)=N1 (stereo not shown) [6.170] | 2 | 3 | 3 | 4 | 4 | 1
3 | CC1CCCC(OS2=NC(N)=NC(Oc3cc(F)ccc3F)=N2)C1 (stereo not shown) [5.318] | 2 | 4 | – | – | – | –
4 | NC1=NC(Oc2c(F)c(F)c(F)c(F)c2F)=NS(N2CC[C@H]3CCC[C@H]32)=N1 (relative stereo) [6.10] | – | – | 4 | 4 | 1 | 1
5 | CC1CC(NS2=NC(N)=NC(Oc3c(F)c(F)c(F)c(F)c3F)=N2)CC(C)(C)C1 (stereo not shown) [6.168] | 2 | 3 | – | – | – | –
6 | NC1=NS(N2CC3CCC(CC3)C2)=NC(Oc2cc(F)ccc2F)=N1 (stereo not shown) [6.81] | 2 | 3 | – | – | – | –
7 | CC1CC(C)CN(S2=NC(N)=NC(Oc3cc(F)ccc3F)=N2)C1 (stereo not shown) [6.23] | 2 | 4 | – | – | – | –
8 | CC1CN(S2=NC(N)=NC(Oc3c(F)c(F)c(F)c(F)c3F)=N2)C2CCCCC12 (stereo not shown) [6.295] | 1 | 3 | 3 | 1 | 1 | 1
9 | NC1=NS(N2CCCCCCCCCCCC2)=NC(Oc2c(F)c(F)c(F)c(F)c2F)=N1 (stereo not shown) [6.177] | 2 | 2 | – | – | – | –
10 | NC1=NC(Oc2c(F)c(F)c(F)c(F)c2F)=NS(OC2CCCCCCC2)=N1 (stereo not shown) [5.176] | 2 | 2 | 4 | 2 | 1 | 1
11 | NC1=NS(N2CCC3CCCCC3CC2)=NC(Oc2c(F)c(F)c(F)c(F)c2F)=N1 (stereo not shown) [6.283] | 1 | 4 | – | – | – | –
12 | CC1(C)CC2CC(C)(CN2S2=NC(N)=NC(Oc3c(F)c(F)c(F)c(F)c3F)=N2)C1 (single isomer, unassigned) [6.153] | 1 | 2 | 4 | 3 | 1 | 1
13 | NC1=NC(Oc2c(F)c(F)c(F)c(F)c2F)=NS(N2CCCC3CCCCCCC32)=N1 (stereo not shown) [6.102] | 2 | 3 | – | – | – | –
14 | CC1CCC(OS2=NC(N)=NC(Oc3c(F)c(F)c(F)c(F)c3F)=N2)CC1 (stereo not shown) [5.326] | 2 | 4 | 4 | 4 | 1 | 1
15 | CC1(C)CC(OS2=NC(N)=NC(Oc3c(F)c(F)c(F)c(F)c3F)=N2)CC(C)(C)C1 (stereo not shown) [5.146] | – | – | 4 | 1 | 1 | 1
16 | CC1(C)CCCN(S2=NC(N)=NC(Oc3cc(F)ccc3F)=N2)C1 (stereo not shown) [6.129] | 2 | 3 | 4 | 4 | 1 | 1
17 | NC1=NC(Oc2c(F)c(F)c(F)c(F)c2F)=NS(N2CC[C@H]3CCC[C@H]32)=N1 (relative stereo) [6.6] | 2 | 4 | – | – | – | –
18 | NC1=NS(N2CCCCCCCCCC2)=NC(Oc2c(F)c(F)cc(F)c2F)=N1 (stereo not shown) [6.320] | 2 | 3 | – | – | – | –
19 | CC(C)N(C(C)C)S1=NC(Oc2c(F)c(F)c(F)c(F)c2F)=NC(N)=N1 (stereo not shown) [6.247] | 3 | 4 | – | – | – | –
20 | CC1CCCC(OS2=NC(N)=NC(Oc3c(F)c(F)c(F)c(F)c3F)=N2)C1 (stereo not shown) [5.141] | 2 | 4 | – | – | – | –

Row | SMILES | Post-emergent action, rating, Sinapis [1] | Post-emergent action, rating, Stellaria [2] | Pre-emergent action, rating, Avena [3] | Pre-emergent action, rating, Setaria [4] | Pre-emergent action, rating, Sinapis [5] | Pre-emergent action, rating, Stellaria [6]
21 | NC1=NC(Oc2c(F)c(F)c(F)c(F)c2F)=NS(NC2CCCCC2)=N1 (stereo not shown) [6.17] | 3 | 4 | – | – | – | –
22 | NC1=NC(Oc2cc(F)ccc2F)=NS(N2CC[C@H]3CCCC[C@H]32)=N1 (relative stereo) [6.120] | 2 | 4 | – | – | – | –
23 | CC1CCN(S2=NC(Oc3cc(F)ccc3F)=NC(N)=N2)CC(C)(C)C1 (stereo not shown) [6.249] | 1 | 2 | – | – | – | –
24 | CC1CCC(C)N1S1=NC(N)=NC(Oc2c(F)c(F)c(F)c(F)c2F)=N1 (stereo not shown) [6.63] | – | – | 4 | 3 | 1 | 1
25 | NC1=NC(Oc2c(F)c(F)c(F)c(F)c2F)=NS(OCC23CC4CC(CC(C4)C2)C3)=N1 (stereo not shown) [5.85] | 3 | 3 | – | – | – | –
26 | CCCN(CCC)S1=NC(N)=NC(Oc2c(F)c(F)c(F)c(F)c2F)=N1 (stereo not shown) [6.21] | 2 | 4 | – | – | – | –
27 | NC1=NC(Oc2cc(F)ccc2F)=NS(N2CCc3ccccc3CC2)=N1 (stereo not shown) [6.164] | 1 | 3 | – | – | – | –
28 | CC(C)(C)C1CCC(OS2=NC(N)=NC(Oc3c(F)c(F)c(F)c(F)c3F)=N2)CC1 (stereo not shown) [5.316] | 2 | 4 | – | – | – | –
29 | CC1N(S2=NC(N)=NC(Oc3c(F)c(F)c(F)c(F)c3F)=N2)CCCC1(C)C (stereo not shown) [6.90] | 2 | 4 | – | – | – | –
30 | NC1=NC(Oc2c(F)c(F)c(F)c(F)c2F)=NS(N2CCCCC2)=N1 (stereo not shown) [6.53, 3-amino-5-pentafluorophenoxy-1-(piperidin-1-yl)thiatriazine] | – | – | 3 | 3 | 1 | 1
31 | CN(C1CCCCC1)S1=NC(N)=NC(Oc2c(F)c(F)c(F)c(F)c2F)=N1 (stereo not shown) [6.7] | 2 | 3 | – | – | – | –
32 | NC1=NC(Oc2cc(F)ccc2F)=NS(N2CCCCCC2)=N1 (stereo not shown) [6.57] | 2 | 4 | – | – | – | –
33 | CC1CC(OS2=NC(N)=NC(Oc3c(F)c(F)c(F)c(F)c3F)=N2)CC(C)(C)C1 (stereo not shown) [5.86] | – | – | 5 | 3 | 1 | 1
34 | CC1(C)C2CCC1(C)C(OS1=NC(N)=NC(Oc3c(F)c(F)c(F)c(F)c3F)=N1)C2 (stereo not shown) [5.154] | 2 | 4 | – | – | – | –
35 | CC1CCC(OS2=NC(N)=NC(Oc3c(F)c(F)c(F)c(F)c3F)=N2)CC1 (stereo not shown) [5.327] | – | – | 4 | 3 | 2 | 1
36 | CC1CCCC(OS2=NC(N)=NC(Oc3c(F)c(F)c(F)c(F)c3F)=N2)C1 (stereo not shown) [5.317] | – | – | 4 | 2 | 2 | 1
37 | NC1=NC(OCC(Cl)(Cl)C(F)(F)F)=NS(OCCCl)=N1 (stereo not shown) [5.337] | 1 | 5 | – | – | – | –
38 | CC12CCCCC1N(S1=NC(N)=NC(Oc3c(F)c(F)c(F)c(F)c3F)=N1)CCC2 (stereo not shown) [6.181] | 2 | 3 | – | – | – | –
39 | NC1=NC(Oc2c(F)c(F)c(F)c(F)c2F)=NS(N2CCN(c3ccccc3)CC2)=N1 (stereo not shown) [6.77] | – | – | 4 | 3 | 1 | 1
